Data reported in patent US10301256B2, “Sulfonamide and sulfinamide prodrugs of fumarates and their use in treating various diseases” (Alkermes Pharma Ireland Limited, priority 2014, dated 2019).
Structures can show the parent of a compound that is named as a salt.

What was measured:
[1] = Chemical stability of MMF prodrugs in pH 8 phosphate buffer; format: physicochemical; details: 50 mM buffer phosphate pH 8, 37° C., HPLC-UV, first-order decay
Protocol: Stock solutions of the compounds in acetonitrile or acetonitrile/MeOH were prepared at 0.05M. A 0.010 mL aliquot of the stock was spiked into 1 mL of 50 mM buffer phosphate pH 8 and incubated at 37° C. Typically, aliquots (0.010 mL) were sampled at different time points and immediately injected in the HPLC with UV detection (211 nm). The peak areas corresponding to the compounds were plotted against time and the data were fitted to a first-order mono-exponential decay where the rate constant and the half-life were determined from the slope (Table 2).

[2] = Physical stability in crystalline form by thermogravimetric analysis (TGA); format: physicochemical; details: 55° C.; for weight loss vs time (TGA): crystalline form
Protocol: The physical stability of compounds of the present invention and dimethyl fumarate (DMF) were measured via thermogravimetric analysis (TGA).

pH 8 (t½, min) [1]	weight loss vs time (TGA) [2]	weight loss (TGA) ([2]; in less than 2 hours)	SMILES
202 min	–	–	COC(=O)/C=C/C(=O)OCCN1CCCS1(=O)=O [Compound 6, 2-(1,1-Dioxidoisothiazolidin-2-yl)ethyl methyl fumarate]
187 min	no change	–	COC(=O)/C=C/C(=O)OCCN(C)S(C)(=O)=O [Compound 1, Methyl (2-(N-methylmethylsulfonamido)ethyl) fumarate]
–	–	~100%	COC(=O)/C=C/C(=O)OC [DMF, dimethyl fumarate, reference compound]
143.5 min	no change	–	COC(=O)/C=C/C(=O)OCCNS(C)(=O)=O [Compound 2, Methyl (2-(methylsulfonamido)ethyl) fumarate]
